Publication PMC6060862, “Prediction and characterization of a novel hemocyanin-derived antimicrobial peptide from shrimp Litopenaeus vannamei” (Amino Acids, 2018)
≈ marks a conversion by molar mass, not a printed value. Read-outs that look alike come from different tables or passages of the source. Residues, ends and D or L forms follow the SMILES beside them.

Legend:
[1] = system: Vibrio parahaemolyticus; experiment: Minimal inhibitory concentration (MIC); format: cell-based; conditions: Gram negative; bacteria 10^6 CFU/mL in 0.01 M PBS pH 7.6 mixed with equal volume of peptide in PBS, 30 °C 2 h, plated on LB agar 30 °C overnight; triplicate, repeated at least three times
Method: (§1) Seven bacteria including Vibrio parahaemolyticus, Vibrio fluvialis, Vibrio alginolyticus, Escherichia coli, Aeromonas hydrophila, Staphylococcus aureus and Streptococcus pyogenes were grown in LB medium at 30 °C and diluted to 10^6 CFU/mL in 0.01 M, pH 7.6 PBS. Peptides were diluted in PBS. The bacteria and diluted peptides were mixed in equal volumes, and then incubated at 30 °C for 2 h. […] Experiments were carried out in triplicate and repeated at least three times. Data are presented as mean ± standard deviation. GraphPad prism 6 was used to analyze the data with the statistical significance determined by one-way ANOVA and Student’s t test, and all experiments were carried out in triplicate.

[2] = system: Vibrio fluvialis; format: cell-based
Method: as §1

[3] = system: Staphylococcus aureus; format: cell-based
Method: as §1

[4] = system: Vibrio alginolyticus; format: cell-based
Method: as §1

[5] = system: Aeromonas hydrophila; format: cell-based
Method: as §1

[6] = system: Streptococcus pyogenes; format: cell-based
Method: as §1

[7] = system: Escherichia coli; format: cell-based
Method: as §1

[8] = system: seven bacteria (V. parahaemolyticus, V. fluvialis, V. alginolyticus, E. coli, A. hydrophila, S. aureus, S. pyogenes); experiment: MIC summarised over the seven bacteria (GB, average MIC, fold change); format: cell-based; conditions: for GB: summary of the MICs over the seven bacteria, footnote b not given; for decrease of antibacterial activity relative to L1: from MICs of Table 3, except for S.pyogenes
Method: as §1

[9] = not given; remark: listed apart in the source
[10] = not given; remark: listed apart in the source
[11] = not given; remark: listed apart in the source
[12] = Gram negative, bacteria 10^6 CFU/mL in 0.01 M PBS pH 7.6 mixed with equal volume of peptide in PBS, 30 °C 2 h, plated on LB agar 30 °C overnight, triplicate, repeated at least three times
[13] = Gram positive, bacteria 10^6 CFU/mL in 0.01 M PBS pH 7.6 mixed with equal volume of peptide in PBS, 30 °C 2 h, plated on LB agar 30 °C overnight, triplicate, repeated at least three times

Compound	MIC V. parahaemolyticus [1] [µg/mL]	MIC V. fluvialis [2, 12] [µg/mL]	MIC S. aureus [3, 13] [µg/mL]	MIC V. alginolyticus [4, 12] [µg/mL]	MIC A. hydrophila ([5]; Gram negative (Table 2), bacteria 10^6 CFU/mL in 0.01 M PBS pH 7.6 mixed with equal volume of peptide in PBS, 30 °C 2 h, plated on LB agar 30 °C overnight, triplicate, repeated at least three times) [µg/mL]	MIC S. pyogenes [6, 13] [µg/mL]	MIC E. coli [7, 12] [µg/mL]	GB [8] [µg/mL]	random coil content [%]	β-strand content [9] [%]	β-turns content [10] [%]	α-helical content [11] [%]	MIC V. fluvialis ([2]; 2 h, pH 7.6) [µg/mL]	MIC S. aureus ([3]; 2 h, pH 7.6) [µg/mL]	MIC V. alginolyticus ([4]; 2 h, pH 7.6) [µg/mL]	MIC A. hydrophila ([5]; 2 h, pH 7.6) [µg/mL]	MIC S. pyogenes ([6]; 2 h, pH 7.6) [µg/mL]	MIC E. coli ([7]; 2 h, pH 7.6) [µg/mL]	average MIC relative to the average MIC of L1 ([8]; over the seven bacteria)	decrease of antibacterial activity relative to L1 [8]
NC[C@H]1O[C@H](O[C@H]2[C@H](O)[C@@H](O[C@H]3O[C@H](CO)[C@@H](O)[C@H](N)[C@H]3O)[C@H](N)C[C@@H]2N)[C@H](O)[C@@H](O)[C@@H]1O [Kanamycin, reference compound]	1 (≈ 2.06 µM)	1 (≈ 2.06 µM)	2 (≈ 4.13 µM)	0.5 (≈ 1.03 µM)	1 (≈ 2.06 µM)	1 (≈ 2.06 µM)	2 (≈ 4.13 µM)	1.1	–	–	–	–	–	–	–	–	–	–	–	–
CC[C@H](C)[C@H](NC(=O)[C@H](CCCCN)NC(=O)[C@H](Cc1c[nH]cn1)NC(=O)[C@H](CC(C)C)NC(=O)[C@H](CC(C)C)NC(=O)[C@H](Cc1ccccc1)NC(=O)[C@H](CC(N)=O)NC(=O)[C@@H](N)C(C)C)C(=O)N[C@@H](Cc1ccc(O)cc1)C(=O)NCC(=O)N[C@@H](CC(N)=O)C(=O)N[C@H](C(=O)N[C@@H](CCCNC(=N)N)C(=O)N[C@@H](Cc1ccc(O)cc1)C(=O)N[C@@H](CO)C(N)=O)[C@@H](C)CC [L1] (H-VNFLLHKIYGNIRYS-NH2)	31.2 (≈ 17 µM)	–	–	–	–	–	–	–	33.4	11.2	24	34.6	62.5 (≈ 34 µM)	62.5 (≈ 34 µM)	3.9 (≈ 2.12 µM)	3.9 (≈ 2.12 µM)	62.5 (≈ 34 µM)	3.9 (≈ 2.12 µM)	–	–
CC(C)C[C@H](NC(=O)[C@H](CCCCN)NC(=O)[C@H](CCC(N)=O)NC(=O)[C@@H](NC(=O)[C@H](C)NC(=O)[C@H](CCC(=O)O)NC(=O)CNC(=O)CN)C(C)C)C(=O)N[C@H](C(=O)N[C@@H](CCCNC(=N)N)C(=O)N[C@@H](CCC(=O)O)C(=O)N[C@H](C(=O)N[C@@H](CCCCN)C(=O)N[C@@H](CC(=O)O)C(=O)NCC(N)=O)C(C)C)C(C)C [L2] (H-GGEAVQKLVREVKDG-NH2; N-terminus and C-terminus assumed)	250 (≈ 158 µM)	–	–	–	–	–	–	205.1	–	–	–	–	125 (≈ 78.9 µM)	> 250	125 (≈ 78.9 µM)	250 (≈ 158 µM)	250 (≈ 158 µM)	> 250	tenfold	–
CC[C@H](C)[C@H](NC(=O)[C@H](CCCNC(=N)N)NC(=O)[C@H](CO)NC(=O)[C@H](CCC(=O)O)NC(=O)[C@@H](NC(=O)[C@@H](NC(=O)[C@H](CC(C)C)NC(=O)[C@H](CC(C)C)NC(=O)[C@H](CC(=O)O)NC(=O)[C@H](CCCNC(=N)N)NC(=O)[C@@H](NC(=O)[C@H](CCCNC(=N)N)NC(=O)[C@H](C)NC(=O)[C@@H](NC(=O)CN)C(C)C)[C@@H](C)CC)[C@@H](C)CC)[C@@H](C)CC)C(N)=O [L8] (H-GVARIRDLLIIESRI-NH2; N-terminus and C-terminus assumed)	250 (≈ 145 µM)	–	–	–	–	–	–	185.8	–	–	–	–	250 (≈ 145 µM)	250 (≈ 145 µM)	250 (≈ 145 µM)	31.3 (≈ 18.2 µM)	250 (≈ 145 µM)	> 250	–	–
CC[C@H](C)[C@H](NC(=O)[C@H](C)NC(=O)[C@H](CC(=O)O)NC(=O)[C@H](CCCNC(=N)N)NC(=O)[C@@H](NC(=O)[C@@H](N)CCCNC(=N)N)[C@@H](C)CC)C(=O)N[C@@H](C)C(=O)N[C@@H](Cc1c[nH]cn1)C(=O)NCC(=O)N[C@@H](Cc1ccc(O)cc1)C(=O)N[C@H](C(=O)N[C@H](C(=O)N[C@@H](CC(=O)O)C(=O)N[C@@H](CCCCN)C(=O)N[C@H](C(N)=O)C(C)C)C(C)C)[C@@H](C)CC [L10] (H-RIRDAIAHGYIVDKV-NH2)	250 (≈ 145 µM)	–	–	–	–	–	–	113.3	–	–	–	–	125 (≈ 72.5 µM)	> 250	31.3 (≈ 18.1 µM)	31.3 (≈ 18.1 µM)	125 (≈ 72.5 µM)	> 250	–	–
CC[C@H](C)[C@H](NC(=O)[C@H](Cc1c[nH]cn1)NC(=O)[C@H](C)NC(=O)[C@@H](NC(=O)[C@H](CC(N)=O)NC(=O)[C@H](Cc1c[nH]cn1)NC(=O)[C@H](CC(C)C)NC(=O)[C@H](C)NC(=O)CNC(=O)[C@H](Cc1ccc(O)cc1)NC(=O)[C@@H](N)Cc1ccc(O)cc1)[C@@H](C)O)C(=O)N[C@H](C(=O)N[C@@H](CC(C)C)C(=O)NCC(=O)N[C@@H](CCCNC(=N)N)C(N)=O)C(C)C [L12] (H-YYGALHNTAHIVLGR-NH2)	250 (≈ 148 µM)	–	–	–	–	–	–	125.0	–	–	–	–	250 (≈ 148 µM)	> 250	15.6 (≈ 9.26 µM)	125 (≈ 74.2 µM)	125 (≈ 74.2 µM)	125 (≈ 74.2 µM)	–	–
CC[C@H](C)[C@H](NC(=O)[C@H](CCCCN)NC(=O)[C@H](Cc1c[nH]cn1)NC(=O)[C@H](CC(C)C)NC(=O)[C@H](CC(C)C)NC(=O)CNC(=O)[C@H](CC(N)=O)NC(=O)[C@@H](N)C(C)C)C(=O)N[C@@H](Cc1ccc(O)cc1)C(=O)NCC(=O)N[C@@H](CC(N)=O)C(=O)N[C@H](C(=O)N[C@@H](CCCNC(=N)N)C(=O)N[C@@H](Cc1ccc(O)cc1)C(=O)N[C@@H](CO)C(N)=O)[C@@H](C)CC [M1] (H-VNGLLHKIYGNIRYS-NH2)	62.5 (≈ 35.8 µM)	–	–	–	–	–	–	–	–	–	–	–	250 (≈ 143 µM)	> 250	250 (≈ 143 µM)	15.6 (≈ 8.93 µM)	15.6 (≈ 8.93 µM)	15.6 (≈ 8.93 µM)	–	2- to 64 fold
CC[C@H](C)[C@H](NC(=O)[C@H](CC(N)=O)NC(=O)[C@H](CC(=O)O)NC(=O)[C@H](Cc1ccc(O)cc1)NC(=O)[C@@H](NC(=O)[C@H](CCCCN)NC(=O)[C@H](Cc1c[nH]cn1)NC(=O)[C@H](CC(C)C)NC(=O)[C@H](CC(C)C)NC(=O)[C@H](Cc1ccccc1)NC(=O)[C@H](CC(N)=O)NC(=O)[C@@H](N)C(C)C)[C@@H](C)CC)C(=O)N[C@@H](CCCNC(=N)N)C(=O)N[C@@H](Cc1ccc(O)cc1)C(=O)N[C@@H](CO)C(N)=O [M2] (H-VNFLLHKIYDNIRYS-NH2)	62.5 (≈ 33 µM)	–	–	–	–	–	–	69.0	–	–	–	–	> 250	> 250	> 250	15.6 (≈ 8.24 µM)	62.5 (≈ 33 µM)	7.8 (≈ 4.12 µM)	–	2- to 64 fold
CC[C@H](C)[C@H](NC(=O)[C@H](CCCCN)NC(=O)[C@H](Cc1c[nH]cn1)NC(=O)[C@H](CC(C)C)NC(=O)[C@H](CC(C)C)NC(=O)[C@H](Cc1ccccc1)NC(=O)[C@H](CC(N)=O)NC(=O)[C@@H](N)C(C)C)C(=O)N[C@@H](Cc1ccc(O)cc1)C(=O)NCC(=O)N[C@@H](CC(N)=O)C(=O)N[C@H](C(=O)N[C@@H](CCCNC(=N)N)C(=O)N[C@@H](CC(=O)O)C(=O)N[C@@H](CO)C(N)=O)[C@@H](C)CC [M3] (H-VNFLLHKIYGNIRDS-NH2)	31.2 (≈ 17.4 µM)	–	–	–	–	–	–	14.2	–	–	–	–	62.5 (≈ 35 µM)	62.5 (≈ 35 µM)	3.9 (≈ 2.18 µM)	3.9 (≈ 2.18 µM)	62.5 (≈ 35 µM)	3.9 (≈ 2.18 µM)	–	no change
